From patent US12054498B2, “Heteroaromatic macrocyclic ether chemotherapeutic agents” (Nuvalent, Inc., priority 2020, dated 2024)
pIC50, pKi: −log10 of the molar value.

Experiments:
[1] = target: T1, Ba/F3 cells TPM3-TRKA (Homo sapiens, UniProt P04629); assay: Ba/F3 cell proliferation assay, TPM3-TRKA; format: cell-based; settings: 72 hours, CellTiter-Glo, read-out: TPM3-NTRK1-wt IC50
T1 construct: host or cells: Ba/F3 (RIKEN), retroviral pMSCV-puro; the other entry of the earlier key: TPM3 (P06753, Tropomyosin alpha-3 chain)
T1 sequence (P04629 510-796 limits assumed): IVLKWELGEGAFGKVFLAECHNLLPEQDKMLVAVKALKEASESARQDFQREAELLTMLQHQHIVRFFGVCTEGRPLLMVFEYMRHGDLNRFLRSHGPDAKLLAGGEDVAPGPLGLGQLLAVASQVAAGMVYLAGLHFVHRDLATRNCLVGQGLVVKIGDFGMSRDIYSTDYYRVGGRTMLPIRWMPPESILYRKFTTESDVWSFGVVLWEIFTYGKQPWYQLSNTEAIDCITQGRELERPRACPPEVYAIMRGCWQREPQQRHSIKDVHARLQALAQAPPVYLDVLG
In short: (§1)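 Luminescence from CellTiter-Glo after 72 hours of compound exposure measured viability of IL-3-independent Ba/F3 cells carrying the retrovirally introduced fusion. Cells were plated at 1,000 per well one day before 3-fold serial dilutions were added. IC50 values came from four-parameter logistic regression.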

[2] = target: T2, ALK L1196M/G1202R (Homo sapiens, UniProt Q9UM73, G1202R/L1196M); assay: Biochemical kinase assay, ALK L1196M/G1202R kinase domain; settings: apparent inhibitory constant, Morrison equation; ATP 2 mM in substrate solution; read-out: ALK-L1196M-G1202R Ki^app
T2 construct: purchased SignalChem A19-12NG
T2 sequence (Q9UM73 1116-1392 L1196M/G1202R limits assumed): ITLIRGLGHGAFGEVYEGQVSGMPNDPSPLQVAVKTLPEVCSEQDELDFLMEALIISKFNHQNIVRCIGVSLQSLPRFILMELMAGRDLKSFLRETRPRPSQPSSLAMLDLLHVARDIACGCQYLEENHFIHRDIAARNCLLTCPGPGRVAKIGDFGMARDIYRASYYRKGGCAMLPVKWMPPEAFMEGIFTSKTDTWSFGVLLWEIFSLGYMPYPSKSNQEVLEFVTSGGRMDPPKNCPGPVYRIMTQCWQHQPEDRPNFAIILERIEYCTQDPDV
In short: (§2)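 Kinase domains (in kinase solution: ROS1-G2032R 0.5 nM, ROS1-wt 0.6 nM, TRKA 1 nM, ALK L1196M/G1202R 3 nM) were mixed with compound and a substrate solution of 2 mM ATP plus 26 μM fluorogenic AQT0101 (ALK, ROS1) or AQT0104 (TRKA) in HEPES pH 7.5/MgCl2. Fluorescence was followed for 120 min at 30° C; Ki^app was obtained by Morrison fit of initial rates.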

[3] = target: T3, Ba/F3 cells CD74-ROS1 wild-type (wt) (Homo sapiens, UniProt P08922); assay: Ba/F3 cell proliferation assay, CD74-ROS1 wild-type; format: cell-based; settings: 72 hours, CellTiter-Glo
T3 construct: fusion of the C-terminus of ROS1 with the N-terminus of various partner proteins; host or cells: Ba/F3 (RIKEN), retroviral pMSCV-puro; the other entry of the earlier key: CD74 (P04233, HLA class II histocompatibility antigen gamma chain)
T3 sequence (P08922 1883-2347 limits assumed): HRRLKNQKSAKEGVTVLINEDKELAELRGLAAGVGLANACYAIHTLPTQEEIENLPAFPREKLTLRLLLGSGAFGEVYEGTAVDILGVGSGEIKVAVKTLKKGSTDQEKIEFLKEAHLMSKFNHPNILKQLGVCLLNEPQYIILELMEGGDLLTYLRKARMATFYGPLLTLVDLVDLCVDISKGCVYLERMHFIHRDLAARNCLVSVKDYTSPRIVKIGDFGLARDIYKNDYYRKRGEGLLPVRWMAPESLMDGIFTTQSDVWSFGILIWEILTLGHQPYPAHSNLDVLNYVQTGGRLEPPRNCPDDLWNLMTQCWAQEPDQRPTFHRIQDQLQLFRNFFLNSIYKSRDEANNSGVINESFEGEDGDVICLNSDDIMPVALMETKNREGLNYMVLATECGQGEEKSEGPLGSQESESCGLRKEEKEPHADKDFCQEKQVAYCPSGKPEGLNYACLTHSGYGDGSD
In short: (§3)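 Cells seeded 1 day, then treated with 3-fold compound dilutions for 72 h; viability by CellTiter-Glo luminescence. IC50 from percent inhibition by four-parameter logistic fit.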

[4] = target: T4, ALK-wt (Homo sapiens, UniProt Q9UM73); assay: Biochemical kinase assay, ALK-wt kinase domain; settings: apparent inhibitory constant, Morrison equation; ATP 2 mM in substrate solution; read-out: ALK-wt Ki^app
T4 construct: purchased Carna 08-518
T4 sequence (Q9UM73 1116-1392 limits assumed): as the sequence (Q9UM73 1116-1392 L1196M/G1202R limits assumed) above, with M81L, R87G counted along it
In short: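 Apparent Ki values come from fitting initial reaction rates against inhibitor concentration to the Morrison equation. Rates were taken from the linear phase of fluorogenic substrate phosphorylation (AQT0101 for ALK and ROS1, AQT0104 for TRKA; 26 μM in substrate solution with 2 mM ATP), monitored at 485 nm over 120 min at 30° C.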

[5] = target: T5, Ba/F3 cells EML4-ALK wt (variant 1) (Homo sapiens, UniProt Q9UM73); assay: Ba/F3 cell proliferation assay, EML4-ALK wt (variant 1); format: cell-based; settings: 72 hours, CellTiter-Glo
T5 construct: echinoderm microtubule-associated protein-like 4 (EML4) gene and the ALK tyrosine kinase domain; host or cells: Ba/F3 (RIKEN), retroviral pMSCV-puro; the other entry of the earlier key: EML4 (Q9HC35, Echinoderm microtubule-associated protein-like 4)
T5 sequence (Q9UM73 with tags, fused parts or gaps): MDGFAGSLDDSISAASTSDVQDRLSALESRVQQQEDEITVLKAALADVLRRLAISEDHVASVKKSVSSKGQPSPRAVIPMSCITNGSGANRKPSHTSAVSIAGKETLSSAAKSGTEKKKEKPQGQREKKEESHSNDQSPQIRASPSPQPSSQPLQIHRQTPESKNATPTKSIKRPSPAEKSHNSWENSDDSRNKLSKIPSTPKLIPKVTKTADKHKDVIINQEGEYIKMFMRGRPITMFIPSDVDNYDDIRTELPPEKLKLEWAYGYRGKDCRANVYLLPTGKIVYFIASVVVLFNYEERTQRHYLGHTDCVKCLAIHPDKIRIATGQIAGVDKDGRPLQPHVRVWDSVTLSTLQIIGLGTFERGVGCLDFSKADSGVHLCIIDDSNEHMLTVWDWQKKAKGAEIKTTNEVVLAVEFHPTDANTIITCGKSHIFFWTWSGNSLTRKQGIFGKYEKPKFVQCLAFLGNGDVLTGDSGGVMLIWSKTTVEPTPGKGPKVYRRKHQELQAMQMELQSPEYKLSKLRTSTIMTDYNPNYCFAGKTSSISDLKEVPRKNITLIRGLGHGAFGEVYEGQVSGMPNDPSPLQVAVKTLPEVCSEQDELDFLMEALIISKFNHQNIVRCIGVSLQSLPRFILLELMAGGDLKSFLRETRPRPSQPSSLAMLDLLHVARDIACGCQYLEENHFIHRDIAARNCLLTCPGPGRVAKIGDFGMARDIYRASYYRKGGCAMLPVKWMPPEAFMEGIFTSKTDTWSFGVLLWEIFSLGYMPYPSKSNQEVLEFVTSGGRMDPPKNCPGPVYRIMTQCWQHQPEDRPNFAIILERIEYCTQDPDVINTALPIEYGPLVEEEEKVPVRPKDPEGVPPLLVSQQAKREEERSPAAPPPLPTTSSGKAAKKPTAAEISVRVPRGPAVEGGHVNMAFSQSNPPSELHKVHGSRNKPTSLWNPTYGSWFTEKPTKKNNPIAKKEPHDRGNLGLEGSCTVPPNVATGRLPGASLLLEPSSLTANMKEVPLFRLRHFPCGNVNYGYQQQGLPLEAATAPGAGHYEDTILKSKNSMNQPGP
In short: as §1

[6] = target: T6, ROS1-wt (Homo sapiens, UniProt P08922); assay: Biochemical kinase assay, ROS1-wt kinase domain; settings: apparent inhibitory constant, Morrison equation; ATP 2 mM in substrate solution; read-out: ROS1-wt Ki^app
T6 construct: purchased Carna 08-163
T6 sequence (P08922 1945-2222 limits assumed): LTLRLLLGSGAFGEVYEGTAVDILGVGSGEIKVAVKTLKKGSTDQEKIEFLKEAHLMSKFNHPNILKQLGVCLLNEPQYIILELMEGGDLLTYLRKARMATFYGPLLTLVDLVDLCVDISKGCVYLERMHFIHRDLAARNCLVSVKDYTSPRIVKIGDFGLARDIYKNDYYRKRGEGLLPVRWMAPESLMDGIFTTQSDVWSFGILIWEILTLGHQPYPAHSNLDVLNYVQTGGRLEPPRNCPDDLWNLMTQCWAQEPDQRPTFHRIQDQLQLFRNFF
In short: (§4)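 Compounds, as 100-fold DMSO stocks, were dispensed first, then substrate mix was added (ATP 2 mM, AQT0101 26 μM, in 50 mM HEPES pH 7.5/10 mM MgCl2). Reactions ran at 30 °C with fluorescence logged every 2 min over 120 min. Apparent inhibition constants came from fitting rates to Morrison's tight-binding equation.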

[7] = target: T7, Ba/F3 cells CD74-ROS1 G2032R (Homo sapiens, UniProt P08922, G2032R); assay: Ba/F3 cell proliferation assay, CD74-ROS1 G2032R; format: cell-based; settings: 72 hours, CellTiter-Glo
T7 construct: fusion of the C-terminus of ROS1 with the N-terminus of various partner proteins; host or cells: Ba/F3 (RIKEN), retroviral pMSCV-puro; the other entry of the earlier key: CD74 (P04233, HLA class II histocompatibility antigen gamma chain)
T7 sequence (P08922 1883-2347 G2032R limits assumed): as the sequence (P08922 1883-2347 limits assumed) above, with G150R counted along it
In short: as §3

[8] = target: T8, Ba/F3 cells EML4-ALK L1196M/G1202R (variant 1) (Homo sapiens, UniProt Q9UM73, G1202R/L1196M); assay: Ba/F3 cell proliferation assay, EML4-ALK L1196M/G1202R (variant 1); format: cell-based; settings: 72 hours, CellTiter-Glo
T8 construct: echinoderm microtubule-associated protein-like 4 (EML4) gene and the ALK tyrosine kinase domain; host or cells: Ba/F3 (RIKEN), retroviral pMSCV-puro; the other entry of the earlier key: EML4 (Q9HC35, Echinoderm microtubule-associated protein-like 4)
T8 sequence (Q9UM73 with tags, fused parts or gaps L1196M/G1202R): as the sequence (Q9UM73 with tags, fused parts or gaps) above, with L635M, G641R counted along it
In short: as §1

[9] = tested on: TPM3-NTRK1-wt IC50 / primary target IC50 (e.g. CD74-ROS1-wt); assay: TRKA selectivity in Ba/F3 cells (TRKA potency divided by primary target potency); format: cell-based; settings: for TPM3-NTRK1-wt/CD74-ROS1-G2032R selectivity ratio: TRKA potency / CD74-ROS1-G2032R potency; for TPM3-NTRK1-wt/CD74-ROS1-wt selectivity ratio: TRKA potency / CD74-ROS1-wt potency; for TPM3-NTRK1-wt/EML4-ALK-L1196M-G1202R selectivity ratio: TRKA potency / EML4-ALK-L1196M-G1202R potency; for TPM3-NTRK1-wt/EML4-ALK-wt selectivity ratio: TRKA potency / EML4-ALK-wt potency
Protocol: TRKA selectivity was calculated by dividing a compound's TRKA potency by its primary target potency (e.g. TPM3-NTRK1-wt IC50/CD74-ROS1-wt IC50). Compound selectivity can be interpreted by binning ratio values: bin A for very high selectivity, ratio >30-fold; bin B for high selectivity, ratio >10-fold; bin C for moderate selectivity, ratio ≥1; and bin D for low selectivity, ratio <1. […] (nd=not determined).

[10] = target: T9, ROS1-G2032R (Homo sapiens, UniProt P08922, G2032R); assay: Biochemical kinase assay, ROS1-G2032R kinase domain; settings: apparent inhibitory constant, Morrison equation; ATP 2 mM in substrate solution; read-out: ROS1-G2032R Ki^app
T9 construct: purchased SignalChem R14-12BG
T9 sequence (P08922 1945-2222 G2032R limits assumed): as the sequence (P08922 1945-2222 limits assumed) above, with G88R counted along it
In short: as §4

[11] = target: T10, TRKA-wt (Homo sapiens, UniProt P04629); assay: Biochemical kinase assay, TRKA-wt kinase domain; settings: apparent inhibitory constant, Morrison equation; ATP 2 mM in substrate solution; read-out: TRKA-wt Ki^app
T10 construct: or TRKA-wt (1 nM, BPS Bio, 40280) kinase domains in buffer; purchased BPS Bio 40280
T10 sequence (P04629 510-781 limits assumed): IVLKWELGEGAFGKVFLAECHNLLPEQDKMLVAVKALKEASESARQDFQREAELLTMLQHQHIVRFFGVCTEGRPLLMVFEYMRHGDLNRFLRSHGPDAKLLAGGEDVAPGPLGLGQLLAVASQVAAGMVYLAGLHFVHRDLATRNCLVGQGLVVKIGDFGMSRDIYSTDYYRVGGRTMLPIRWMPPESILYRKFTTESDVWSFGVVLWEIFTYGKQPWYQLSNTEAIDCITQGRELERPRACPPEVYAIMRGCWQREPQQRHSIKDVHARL
In short: as §2

| pIC50 [1] | pKi [2] | pIC50 [3] | pKi [4] | pIC50 [5] | pKi [6] | pIC50 [7] | pIC50 [8] | pKi [10] | pKi [11] | Compound | TPM3-NTRK1-wt/CD74-ROS1-G2032R selectivity ratio [9] | TPM3-NTRK1-wt/CD74-ROS1-wt selectivity ratio [9] | TPM3-NTRK1-wt/EML4-ALK-L1196M-G1202R selectivity ratio [9] | TPM3-NTRK1-wt/EML4-ALK-wt selectivity ratio [9] |
| --- | --- | --- | --- | --- | --- | --- | --- | --- | --- | --- | --- | --- | --- | --- |
| < 6.30 | > 7.30 | 7.30 to 10.00 | > 7.30 | 7.30 to 10.00 | > 7.30 | 7.30 to 10.00 | 7.30 to 10.00 | > 7.30 | < 6.30 | C[C@H]1Oc2cc(cnc2N)-c2c(C#N)ncn2Cc2ncccc2-c2ccc(F)cc21 [Example 19, (20R)-23-amino-17-fluoro-20-methyl-21-oxa-4,6,9,24-tetraazapentacyclo[20.3.1.0^3,^6.0^8,^13.0^14,^19]hexacosa-1(25),2,4,8(13),9,11,14,16,18,22(26),23-undecaene-3-carbonitrile] | A (bin A for very high selectivity, ratio >30-fold) | A (bin A for very high selectivity, ratio >30-fold) | A (bin A for very high selectivity, ratio >30-fold) | A (bin A for very high selectivity, ratio >30-fold) |
| < 6.30 | > 7.30 | 7.30 to 10.00 | > 7.30 | 7.30 to 10.00 | > 7.30 | 7.30 to 10.00 | 7.30 to 10.00 | > 7.30 | < 6.30 | C[C@H]1Oc2cc(cnc2N)-c2c(cnn2CC2CC2)Cc2nn(C)cc2-c2ccc(F)cc21 [Example 61, (19R)-3-(cyclopropylmetbyl)-16-fluoro-10,19-dimethyl-20-oxa-3,4,9,10,23-pentaazapentacyclo[19.3.1.0^2,^6.0^8,^12.0^13,^18]pentacosa-1(24),2(6),4,8,11,13,15,17,21(25),22-decaen-22-amine] | A (bin A for very high selectivity, ratio >30-fold) | A (bin A for very high selectivity, ratio >30-fold) | A (bin A for very high selectivity, ratio >30-fold) | A (bin A for very high selectivity, ratio >30-fold) |

Second part, the compound before the results:

| Compound | pIC50 [1] | pKi [2] | pIC50 [3] | pKi [4] | pIC50 [5] | pKi [6] | pIC50 [7] | pIC50 [8] | pKi [10] | pKi [11] | TPM3-NTRK1-wt/CD74-ROS1-G2032R selectivity ratio [9] | TPM3-NTRK1-wt/CD74-ROS1-wt selectivity ratio [9] | TPM3-NTRK1-wt/EML4-ALK-L1196M-G1202R selectivity ratio [9] | TPM3-NTRK1-wt/EML4-ALK-wt selectivity ratio [9] |
| --- | --- | --- | --- | --- | --- | --- | --- | --- | --- | --- | --- | --- | --- | --- |
| CCc1nsc2c1-c1cnc(N)c(c1)O[C@H](C)c1cc(F)ccc1-c1ncnn1C2 [Example 44, (19R)-3-ethyl-16-fluoro-19methyl-20-oxa-5-thia-4,8,9,11,23-pentaazapentacyclo[19.3.1.0^2,^6.0^8,^12.0^13,^18]pentacosa-1(24),2(6),3,9,11,13,15,17,21(25),22-decaen-22-amine] | < 6.30 | 6.30 to 7.30 | 7.30 to 10.00 | > 7.30 | 7.30 to 10.00 | > 7.30 | 7.30 to 10.00 | 6.30 to 7.30 | 6.30 to 7.30 | < 6.30 | A (bin A for very high selectivity, ratio >30-fold) | A (bin A for very high selectivity, ratio >30-fold) | C (bin C for moderate selectivity, ratio ≥1) | A (bin A for very high selectivity, ratio >30-fold) |
| C[C@H]1Oc2cc(cnc2N)-c2c(c(Cl)nn2CC2CC2)Cc2nn(C)nc2-c2ccc(F)cc21 [Example 85, (19R)-5-chloro-3-(cyclopropylmethyl)-16-fluoro-10,19-dimethyl-20-oxa-3,4,9,10,11,23-hexaazapentacyclo [19.3.1.0^2,^6.0^8,^12.0^13,^18]pentacosa-1(24),2(6),4,8,11,13,15,17,21(25),22-decaen-22-amine] | < 6.30 | > 7.30 | 7.30 to 10.00 | > 7.30 | 7.30 to 10.00 | > 7.30 | 7.30 to 10.00 | 7.30 to 10.00 | > 7.30 | < 6.30 | A (bin A for very high selectivity, ratio >30-fold) | A (bin A for very high selectivity, ratio >30-fold) | A (bin A for very high selectivity, ratio >30-fold) | A (bin A for very high selectivity, ratio >30-fold) |
| CCn1nc(C(F)(F)F)c2c1-c1cnc(N)c(c1)O[C@H](C)c1cc(F)ccc1-c1nn(C)nc1C2 [Example 80, (19R)-3-ethyl-16-fluoro-10,19-dimethyl-5-(trifluoromethyl)-20-oxa-3,4,9,10,11,23-hexaazapentacyclo[19.3.1.0^2,^6.0^8,^12.0^13,^18]pentacosa-1(24),2(6),4,8,11,13,15,17,21(25),22-decaen-22-amine] | < 6.30 | 6.30 to 7.30 | 7.30 to 10.00 | > 7.30 | 6.30 to 7.30 | > 7.30 | 7.30 to 10.00 | < 6.30 | 6.30 to 7.30 | < 6.30 | A (bin A for very high selectivity, ratio >30-fold) | A (bin A for very high selectivity, ratio >30-fold) | C (bin C for moderate selectivity, ratio ≥1) | B (bin B for high selectivity, ratio >10-fold) |
| CCn1nc(C)c2c1-c1cnc(N)c(c1)O[C@H](C)c1cc(F)ccc1-c1nn(C)nc1C2 [Example 29, (19R)-3-ethyl-16-fluoro-5,10,19-trimethyl-20-oxa-3,4,9,10,11,23-hexaazapentacyclo[19.3.1.0^2,^6.0^8,^12.0^13,^18]pentacosa-1(24),2(6),4,8,11,13,15,17,21(25),22-decaen-22-amine] | 6.30 to 7.30 | > 7.30 | 7.30 to 10.00 | > 7.30 | 7.30 to 10.00 | > 7.30 | 7.30 to 10.00 | 7.30 to 10.00 | > 7.30 | 6.30 to 7.30 | A (bin A for very high selectivity, ratio >30-fold) | A (bin A for very high selectivity, ratio >30-fold) | C (bin C for moderate selectivity, ratio ≥1) | A (bin A for very high selectivity, ratio >30-fold) |
